Laboratory results as given in PMC8033753, “Proadrenomedullin N-Terminal 20 Peptides (PAMPs) Are Agonists of the Chemokine Scavenger Receptor ACKR3/CXCR7” (ACS Pharmacology & Translational Science, 2021).
Where two headings read alike, the source gives them in different places. Where no end group is shown, it is not given here.

Columns and labels:
ACKR3 = biological target: T1, ACKR3 (Homo sapiens, UniProt P25106); test: β-arrestin-2 recruitment to ACKR3, nanoluciferase complementation (NanoBiT) in HEK cells; assay type: cell-based; conditions: for activity toward ACKR3 (β-arrestin-2 recruitment), in words: concentration range up to 9 μM
T1 construct: expressed in transfected cells; host or cells: HEK293T
T1 sequence (P25106 whole entry): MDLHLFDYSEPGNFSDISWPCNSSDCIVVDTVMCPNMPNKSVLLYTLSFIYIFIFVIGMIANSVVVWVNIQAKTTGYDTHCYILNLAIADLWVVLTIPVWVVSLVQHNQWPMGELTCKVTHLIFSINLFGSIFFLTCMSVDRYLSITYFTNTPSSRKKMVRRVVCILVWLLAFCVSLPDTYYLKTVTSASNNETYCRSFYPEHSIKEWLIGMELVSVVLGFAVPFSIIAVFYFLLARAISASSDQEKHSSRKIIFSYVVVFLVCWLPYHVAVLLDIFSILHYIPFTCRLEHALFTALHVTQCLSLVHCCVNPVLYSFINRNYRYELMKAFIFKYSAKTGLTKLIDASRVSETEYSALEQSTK
Experimental: (§1) Ligand-induced recruitment of β-arrestin, miniGi or miniGq proteins (engineered GTPase domain of Gα subunit)[46],[47] to the receptors was monitored using NanoBiT technology (Promega), as previously described.[27],[48] HEK293T cells (5 × 10^6 cells) were seeded in 10 cm dishes, and 24 h later, the cells were cotransfected with pNBe plasmids encoding the receptor C-terminally fused to SmBiT and β-arrestin, miniGi, or miniGq N-terminally fused to LgBiT. After 24 h, the cells were detached and incubated for 25 min at 37 °C with Nano-Glo Live Cell substrate diluted 200-fold, distributed into white 96-well plates (1 × 10^5 cells/well), and treated with the indicated concentrations of peptides. Luminescence was recorded during 20 min with a Mithras LB940 luminometer (Berthold Technologies). For the concentration–response curves, the signal recorded with a saturating concentration of full agonist for each receptor was set as 100%. For receptor screening experiments, results were expressed as fold vehicle, and an agonist chemokine (100 nM) listed in the IUPHAR repository of chemokine receptor ligands was included as a positive control for each receptor.
(§2) Concentration–response curves were fitted to the four-parameter Hill equation using an iterative, least-squares method (GraphPad Prism version 8.0.1). All curves were fitted to data points generated from the mean of at least three independent experiments. Statistical tests, i.e., ordinary one-way ANOVA and post hoc analysis were performed with GraphPad Prism 8.0.1. The p-values are indicated as follows: *, p < 0.05; **, p < 0.01; ***, p < 0.001; and ****, p < 0.0001.

MrgX2 = biological target: T2, MrgX2 (Homo sapiens, UniProt Q96LB1); test: β-arrestin-2 recruitment to MrgX2, NanoBiT in HEK cells; assay type: cell-based
T2 construct: expressed in transfected cells; host or cells: HEK293T
T2 sequence (Q96LB1 1-330): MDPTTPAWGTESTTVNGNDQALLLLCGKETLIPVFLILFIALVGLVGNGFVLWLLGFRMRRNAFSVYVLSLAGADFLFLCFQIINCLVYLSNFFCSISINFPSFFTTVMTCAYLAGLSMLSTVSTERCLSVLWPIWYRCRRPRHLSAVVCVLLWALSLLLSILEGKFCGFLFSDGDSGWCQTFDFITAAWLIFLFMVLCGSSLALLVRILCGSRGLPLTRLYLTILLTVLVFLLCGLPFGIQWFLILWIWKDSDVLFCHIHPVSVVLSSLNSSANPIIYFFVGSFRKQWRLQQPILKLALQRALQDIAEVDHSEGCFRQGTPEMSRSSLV
Experimental: as §1, §2

GPR182 = biological target: T3, GPR182 (Homo sapiens, UniProt O15218); test: β-arrestin-2 recruitment to GPR182 (NanoBiT screen); assay type: cell-based; conditions: peptides 3 μM
T3 construct: expressed in transfected cells; host or cells: HEK293T
T3 sequence (O15218 whole entry, species assumed): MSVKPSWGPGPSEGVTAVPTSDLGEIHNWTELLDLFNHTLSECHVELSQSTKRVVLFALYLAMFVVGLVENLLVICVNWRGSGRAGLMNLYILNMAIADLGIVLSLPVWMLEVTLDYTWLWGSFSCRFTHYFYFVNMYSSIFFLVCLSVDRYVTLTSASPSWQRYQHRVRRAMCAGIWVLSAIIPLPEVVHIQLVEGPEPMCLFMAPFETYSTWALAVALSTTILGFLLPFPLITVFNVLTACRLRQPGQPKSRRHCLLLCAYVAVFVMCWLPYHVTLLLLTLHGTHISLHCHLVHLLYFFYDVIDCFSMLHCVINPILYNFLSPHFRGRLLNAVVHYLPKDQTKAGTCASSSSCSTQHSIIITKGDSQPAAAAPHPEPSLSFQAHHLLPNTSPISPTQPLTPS
Experimental: as §1

HEK-ACKR3 cells = test: PAMP-12-FAM uptake by HEK-ACKR3 cells, imaging flow cytometry; assay type: cell-based, human; conditions: chemokine 200 nM, 15 min preincubation; PAMP-12-FAM 3 μM, 45 min at 37 °C
Experimental: HEK293T or HEK-ACKR3 cells were harvested in Opti-MEM and distributed into 96-well plates (3 × 10^5 cells/well). […] At 24 h post-transfection, the cells were harvested and treated as described above. Dead cells were excluded using Zombie NIR viability dye (BioLegend). Images of 1 × 10^4 in-focus, living single cells were acquired with an ImageStream Mark II imaging flow cytometer (Amnis) equipped with an extended depth of field (EDF) module and using 60× magnification. Samples were analyzed using Ideas6.2 software. The number of spots per cell was determined using a mask-based software wizard.

[1] = tested on: all known classical and atypical human chemokine receptors; test: β-arrestin-2 recruitment screen toward all chemokine receptors (NanoBiT); assay type: cell-based; conditions: peptides 3 μM, fold change over vehicle
Experimental: as §1

[2] = pEC50 ± S.E.M, β-arrestin-2 recruitment, ACKR3 (Supplementary Table 2), HEK cells, NanoBiT, three independent experiments
[3] = EC50, β-arrestin-2 recruitment toward MrgX2, HEK cells, NanoBiT, normalised to full agonist, three independent experiments
[4] = pEC50 ± S.E.M, β-arrestin recruitment, MrgX2 (Supplementary Table 1), HEK cells, NanoBiT, NA: no activity detected in the concentration range tested

| Compound | EC50 (ACKR3; [2]) [nM] | EC50 (MrgX2) [nM] | other results |
| --- | --- | --- | --- |
| CC(C)C[C@H](NC(=O)[C@H](C)NC(=O)[C@H](Cc1c[nH]c2ccccc12)NC(=O)[C@H](CCCCN)NC(=O)[C@H](CC(N)=O)NC(=O)[C@H](Cc1c[nH]c2ccccc12)NC(=O)[C@H](CCCCN)NC(=O)[C@H](CCCCN)NC(=O)[C@H](CCCNC(=N)N)NC(=O)[C@@H](N)Cc1ccccc1)C(=O)N[C@@H](CO)C(=O)N[C@@H](CCCNC(=N)N)C(=O)O | 1580 | 2290 | – |
| CC[C@H](C)[C@H](NC(=O)[C@H](CCC(N)=O)NC(=O)[C@H](Cc1c[nH]cn1)NC(=O)[C@H](C)NC(=O)[C@H](CC(C)C)NC(=O)[C@H](CCCCN)NC(=O)[C@H](CCC(N)=O)NC(=O)[C@@H](NC(=O)[C@@H](NC(=O)[C@@H]1CSSC[C@H](NC(=O)CNC(=O)[C@H](Cc2ccccc2)NC(=O)[C@H](CO)NC(=O)[C@H](CCCNC(=N)N)NC(=O)[C@H](CC(C)C)NC(=O)CNC(=O)[C@H](CCC(N)=O)NC(=O)[C@H](Cc2ccccc2)NC(=O)[C@H](CC(N)=O)NC(=O)[C@H](CC(N)=O)NC(=O)[C@H](CCSC)NC(=O)[C@H](CO)NC(=O)[C@H](CCC(N)=O)NC(=O)[C@H](CCCNC(=N)N)NC(=O)[C@@H](N)Cc2ccc(O)cc2)C(=O)N[C@@H](CCCNC(=N)N)C(=O)N[C@@H](Cc2ccccc2)C(=O)NCC(=O)N[C@@H]([C@@H](C)O)C(=O)N1)[C@@H](C)O)C(C)C)C(=O)N[C@@H](Cc1ccc(O)cc1)C(=O)N[C@@H](CCC(N)=O)C(=O)N[C@@H](Cc1ccccc1)C(=O)N[C@H](C(=O)N[C@@H](CC(=O)O)C(=O)N[C@@H](CCCCN)C(=O)N[C@@H](CC(=O)O)C(=O)N[C@@H](CCCCN)C(=O)N[C@@H](CC(=O)O)C(=O)N[C@@H](CC(N)=O)C(=O)N[C@H](C(=O)N[C@@H](C)C(=O)N1CCC[C@H]1C(=O)N[C@@H](CCCNC(=N)N)C(=O)N[C@@H](CO)C(=O)N[C@@H](CCCCN)C(=O)N[C@H](C(=O)N[C@@H](CO)C(=O)N1CCC[C@H]1C(=O)N[C@@H](CCC(N)=O)C(=O)NCC(=O)N[C@@H](Cc1ccc(O)cc1)C(N)=O)[C@@H](C)CC)C(C)C)[C@@H](C)O [ADM] | – | – | activity toward GPR182, in words (GPR182): no activity |
| CC(C)C[C@H](NC(=O)[C@H](C)NC(=O)[C@H](Cc1c[nH]c2ccccc12)NC(=O)[C@H](CCCCN)NC(=O)[C@H](CC(N)=O)NC(=O)[C@H](Cc1c[nH]c2ccccc12)NC(=O)[C@H](CCCCN)NC(=O)[C@H](CCCCN)NC(=O)[C@H](CCCNC(=N)N)NC(=O)[C@@H](N)Cc1ccccc1)C(=O)N[C@@H](CO)C(=O)N[C@@H](CCCNC(=N)N)C(N)=O [PAMP-12] | – | – | EC50 (MrgX2; [3]): 785 nM; EC50 (MrgX2; [4]): 776 nM; activity toward GPR182, in words (GPR182): no activity |
| CSCC[C@H](NC(=O)[C@H](CC(C)C)NC(=O)CNC(=O)[C@H](Cc1ccccc1)NC(=O)[C@H](Cc1ccccc1)NC(=O)[C@H](CCC(N)=O)NC(=O)[C@H](CCC(N)=O)NC(=O)[C@@H]1CCCN1C(=O)[C@H](CCCCN)NC(=O)[C@@H]1CCCN1C(=O)[C@@H](N)CCCNC(=N)N)C(N)=O [substance P, reference compound] | – | – | activity toward ACKR3 (β-arrestin-2 recruitment), in words (ACKR3; HEK cells, NanoBiT): no activity |
| AFRKKWNKWALSR-NH2 | 2000 | 891 | – |
| AMY: CGRP family peptide (KCNTATCATQRLANFLVHSSNNFGAILSSTNVGSNTY; not fully specified (C-terminus, bridges); cysteine pairing not given here; UniProt P10997 34-70, looked up) [reference compound] | – | – | activity toward ACKR3 (β-arrestin-2 recruitment), in words (ACKR3; HEK cells, NanoBiT): No activity |
| ARKKWNKWALSR-NH2 | 46800 | 933 | – |
| ARLDVASEFRKKWNKWA [PAMP1-17] | 331000 | 95500 | – |
| ARLDVASEFRKKWNKWALSR-NH2 [PAMP] | – | – | EC50 (ACKR3): > 10000 nM; EC50 (MrgX2; [3]): 6200 nM; EC50 (MrgX2; [4]): 6170 nM; activity toward GPR182, in words (GPR182): no activity |
| CT: CGRP family peptide [reference compound] | – | – | activity toward ACKR3 (β-arrestin-2 recruitment), in words (ACKR3; HEK cells, NanoBiT): No activity |
| CXCL12: chemokine, full agonist of ACKR3; purchased from PeproTech | – | – | effect of chemokine preincubation on PAMP-12-FAM accumulation in HEK-ACKR3 cells, in words (HEK-ACKR3 cells): reduced PAMP-12 accumulation to background levels |
| DVASEFRKKWNKWALSR-NH2 [PAMP 4-20] | 178000 | 3310 | – |
| FAKKWNKWALSR-NH2 | 9330 | 1000 | – |
| FKKKWNKWALSR-NH2 | 3310 | 1450 | – |
| FRAKWNKWALSR-NH2 | 1350 | 977 | – |
| FRKAWNKWALSR-NH2 | 269 | 661 | – |
| FRKKANKWALSR-NH2 | 7590 | 2000 | – |
| FRKKFNKWALSR-NH2 | 4270 | 589 | – |
| FRKKWAKWALSR-NH2 | 832 | 479 | – |
| FRKKWDKWALSR-NH2 | 589 | 479 | – |
| FRKKWNAWALSR-NH2 | 1260 | 550 | – |
| FRKKWNKAALSR-NH2 | 2240 | 2510 | – |

| Compound | EC50 (ACKR3; [2]) [nM] | EC50 (MrgX2) [nM] | other results |
| --- | --- | --- | --- |
| FRKKWNKFALSR-NH2 | 1150 | 1050 | – |
| FRKKWNKWAASR-NH2 | 2880 | 1480 | – |
| FRKKWNKWAFSR-NH2 | 955 | 741 | – |
| FRKKWNKWALAR-NH2 | 912 | 339 | – |
| FRKKWNKWALFR-NH2 | 575 | 209 | – |
| FRKKWNKWALS-NH2 [FRKKWNKWALS -] | 2570 | 1550 | – |
| FRKKWNKWALSA-NH2 | 11200 | 5750 | – |
| FRKKWNKWALSK-NH2 | 1020 | 794 | – |
| FRKKWNKWALTR-NH2 | 575 | 269 | – |
| FRKKWNKWFLSR-NH2 | 513 | 417 | – |
| FRKKWNKWGLSR-NH2 | 1580 | 1100 | – |
| FRKKWNKYALSR-NH2 | 776 | 741 | – |
| FRKKWNRWALSR-NH2 | 331 | 1950 | – |
| FRKKWQKWALSR-NH2 | 776 | 4680 | – |
| FRKKYNKWALSR-NH2 | 3160 | 2450 | – |
| FRKRWNKWALSR-NH2 | 759 | 1910 | – |
| FRRKWNKWALSR-NH2 | 468 | 2750 | – |
| KWNKWALSR-NH2 [PAMP(12–20)] | – | – | agonist activity toward the other 24 chemokine receptors tested, in words [1]: do not activate |
| RKKWNKWALSR-NH2 [- RKKWNKWALSR] | 28800 | 2090 | – |
| WNKWALSR-NH2 [PAMP 13-20] | 11700 | – | – |
| YRKKWNKWALSR-NH2 | 6760 | 912 | – |
